# Data: patent publication US7029863B2, “Cell culture system for determining the cholesterol efflux potential for serum” (The Children's Hospital of Philadelphia, priority 2001, dated 2006)
# How the values were obtained:
# Type in all cases: cell-based
# [1] = system: J774 mouse macrophages treated with cAMP to upregulate the expression of ABCA1; experiment: Cell cholesterol efflux to supplemented human serum, J774 macrophages with ABCA1 upregulated by cAMP; conditions: human serum supplemented with increasing levels of the substance; 4 hour incubation; FIG. 1B
# Description: FIG. 1B is a graph of the percentage of efflux of cell cholesterol after a four hour incubation period of J774 mouse macrophages treated with cAMP to upregulate the expression of ABCA1 with serum supplemented with HDL3 and serum supplemented with Apo AI. Numbers on X axis represent the fold increase of HDL3 or Apo AI with the X axis of 1 being the unsupplemented serum.
# For example, in one embodiment of the present invention, an assay to quantitate the contribution of ABCA1 to cellular cholesterol efflux uses a sample of cells, such as transformed mouse macrophages which are grown in monolayers and prelabeled with ^3H-cholesterol. […] The release of the radiolabeled cholesterol is determined after an appropriate incubation time ranging from 1 to 12 hours. The ABCA1 contribution to efflux is determined by subtracting the efflux obtained in ABCA1 negative cultures from that obtained from the ABCA1 positive cultures.
# FIGS. 1A–1F illustrate that the expression of SR-BI and ABCA1 independently in cultured cells can be used to detect cell cholesterol efflux to human sera with different levels of apolipoprotein AI, high density lipoprotein (HDL) or high density lipoprotein3 (HDL3). […] The control and supplemented serum samples were then diluted in tissue culture medium and incubated with the indicated cell systems; the efflux of cell cholesterol was measured after a 4 hour incubation period. […]
# [2] = system: W138VA13 human embryonic lung fibroblasts pretreated with 9-cis retanoic acid (9CRA) and 22 hydroxycholesterol to upregulated ABCA1; experiment: Cell cholesterol efflux to supplemented human serum, W138VA13 fibroblasts with ABCA1 upregulated; conditions: human serum supplemented with increasing levels of the substance; 4 hour incubation; FIG. 1E
# Description: (§1) Numbers on X axis represent the fold increase of HDL3 or Apo AI with the X axis of 1 being the unsupplemented serum.
# (§2) FIGS. 1A–1F illustrate that the expression of SR-BI and ABCA1 independently in cultured cells can be used to detect cell cholesterol efflux to human sera with different levels of apolipoprotein AI, high density lipoprotein (HDL) or high density lipoprotein3 (HDL3). […] The control and supplemented serum samples were then diluted in tissue culture medium and incubated with the indicated cell systems; the efflux of cell cholesterol was measured after a 4 hour incubation period.
# [3] = system: W138VA13 human embryonic lung fibroblasts transfected with SR-BI with ABCA1 upregulated; experiment: Cell cholesterol efflux to supplemented human serum, W138VA13 fibroblasts with SR-BI transfected and ABCA1 upregulated; conditions: human serum supplemented with increasing levels of the substance; 4 hour incubation; FIG. 1F
# Description: as §1, §2
# [4] = system: W138VA13 human embryonic lung fibroblasts; experiment: Cell cholesterol efflux to supplemented human serum, untreated W138VA13 fibroblasts; conditions: human serum supplemented with increasing levels of the substance; 4 hour incubation; low SR-BI and ABCA1 expression; FIG. 1C
# Description: FIG. 1C is a graph of the percentage of efflux of cell cholesterol after a four hour incubation period of W138VA13 human embryonic lung fibroblasts with serum supplemented with HDL3 and serum supplemented with Apo AI. Numbers on X axis represent the fold increase of HDL3 or Apo AI with the X axis of 1 being the unsupplemented serum.
# as §2
# FIG. 1C is a graph of the percentage of efflux of cell cholesterol after a four hour incubation period of W138VA13 human embryonic lung fibroblasts with serum supplemented with HDL3 and serum supplemented with Apo AI. FIG. 1C illustrates that W138VA13 human embryonic lung fibroblasts have low expression levels of both proteins and cell cholesterol efflux is unresponsive to either type of serum supplementation.
substance,measurement,setting,value
Apo AI: apolipoprotein AI added to human serum in increasing levels,percentage of efflux of cell cholesterol,[1],enhanced cholesterol efflux
same,percentage of efflux of cell cholesterol,[2],enhanced
same,efflux of cell cholesterol,[3],enhanced efflux
same,percentage of efflux of cell cholesterol,[4],unresponsive
